In the Kinase Knowledgebase extract (Sharma et al. 2016):
pIC50: −log10 of the molar value.

Molecular target: PIK3CB;PIK3CG;PIK3CD;PIK3CA (human) (UniProt P48736)
Test: Inhibition of PIK3CA/PIK3CB/PIK3CD/PIK3CG Kinase Activity

pIC50 | SMILES
9.52 | COC[C@H]1OC(=O)/C(=C/N(Cc2ccccc2)Cc2ccccc2)C2=C(O)C(=O)C3=C([C@H](OC(C)=O)C[C@]4(C)C(=O)CC[C@@H]34)[C@]21C
9.00 | COC[C@H]1OC(=O)/C(=C/NCCCN(C)C)C2=C(O)C(=O)C3=C([C@H](OC(C)=O)C[C@]4(C)C(=O)CC[C@@H]34)[C@]21C
10.00 | C=CCN(/C=C1/C(=O)O[C@H](COC)[C@@]2(C)C1=C(O)C(=O)C1=C2[C@H](OC(C)=O)C[C@]2(C)C(=O)CC[C@@H]12)CC=C
8.12 | C=CCN/C=C1/C(=O)O[C@H](COC)[C@@]2(C)C1=C(O)C(=O)C1=C2[C@H](OC(C)=O)C[C@]2(C)C(=O)CC[C@@H]12
9.00 | COC[C@H]1OC(=O)/C(=C/Sc2ccccc2)C2=C(O)C(=O)C3=C([C@H](OC(C)=O)C[C@]4(C)C(=O)CC[C@@H]34)[C@]21C
8.70 | COC[C@H]1OC(=O)/C(=C/N)C2=C(O)C(=O)C3=C([C@H](OC(C)=O)C[C@]4(C)C(=O)CC[C@@H]34)[C@]21C
8.00 | COC[C@H]1OC(=O)/C(=C/NCC(N)=O)C2=C(O)C(=O)C3=C([C@H](OC(C)=O)C[C@]4(C)C(=O)CC[C@@H]34)[C@]21C
10.00 | COC[C@H]1OC(=O)/C(=C/SC(C)C)C2=C(O)C(=O)C3=C([C@H](OC(C)=O)C[C@]4(C)C(=O)CC[C@@H]34)[C@]21C
9.10 | COC[C@H]1OC(=O)/C(=C/N(C)Cc2ccccc2)C2=C(O)C(=O)C3=C([C@H](OC(C)=O)C[C@]4(C)C(=O)CC[C@@H]34)[C@]21C
8.96 | COC[C@H]1OC(=O)/C(=C/N2CCCC2)C2=C(O)C(=O)C3=C([C@H](OC(C)=O)C[C@]4(C)C(=O)CC[C@@H]34)[C@]21C
8.70 | COC[C@H]1OC(=O)/C(=C/NCCc2ccccc2)C2=C(O)C(=O)C3=C([C@H](OC(C)=O)C[C@]4(C)C(=O)CC[C@@H]34)[C@]21C
